The results in this text go back to the METLIN SMRT retention time set (Domingo-Almenara et al. 2019).

The data set is described as follows: gradient 5% acetonitrile 3 min, to 50% in 2 min, to 85% in 15 min, held 3 min, 100 µL/min. To be noted: column: Zorbax Extend-C18 2.1 x 50 mm; eluents: water / acetonitrile, 0.1% formic acid. Put shortly: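 Pure standards were analyzed in mixtures of ~100 molecules using HPLC coupled to a quadrupole time-of-flight mass spectrometer, in both positive and negative ionization mode. Separation used a Zorbax Extend-C18 column (2.1 × 50 mm, 1.8 μm) at 100 μL/min, with water and acetonitrile each containing 0.1% formic acid. Dead and dwell volumes were 40 μL and 900 μL, and data were collected over 3 months. Retention time was read from computationally picked adduct peaks, each inspected manually.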
Molecule `COc1cccc(C(=O)Nc2ccc3c(c2)Sc2ncccc2C(=O)N3C)c1` came in with an RP-LC retention time of 785 s.

`CCCS(=O)(=O)N1CCCc2ccc(NC(=O)NC3CCCCC3)cc21` gave an RP-LC retention time of 882 s.

With `O=C(NC1CCCC1)c1nc(C(=O)N2CCN(c3ccccc3)CC2)cs1`, the RP-LC retention time came to 897 s.

The molecule `Cc1cccc(Oc2nccn3c(=O)n(CC(=O)NCCC4=CCCCC4)nc23)c1C` had an RP-LC retention time of 1000 s.

Regarding `COc1ccc(CNC(=O)C2CCCN(c3nnc4ccc(Cl)cn34)C2)cc1` (stereo unspecified), the RP-LC retention time came to 657 s.

For `COc1ccc(-c2cn3c(CC(=O)N4CCc5ccccc54)csc3n2)cc1OC`, the RP-LC retention time turned out to be 748 s.

Molecule `Cc1ccc2nc(C(=O)NCc3ccc(N(C)C)cc3)cn2c1` had an RP-LC retention time of 565 s.

For the molecule `CCNC(=O)C1CCCN(c2nc3ncn(CC(=O)NCc4ccc(C)cc4)c(=O)c3s2)C1` (stereo unspecified), the RP-LC retention time came to 716 s.

`CCn1c(=O)c(N2CCCC(C(=O)NC3CCN(Cc4ccccc4)CC3)C2)nc2ccccc21` (stereo unspecified) gave an RP-LC retention time of 685 s.

As to `O=C(NCCCn1ccnc1)C(=O)NC1CCCCC1`, the RP-LC retention time amounted to 545 s.

On to `Cc1ccc(-c2nc3ncccn3c2NCc2ccc(F)cc2)cc1C`, for which the RP-LC retention time came to 789 s.

As for `Cc1nn(-c2ccccc2)c(C)c1N1CCN(S(=O)(=O)c2c(C)noc2C)CC1`, the RP-LC retention time amounted to 952 s.

With `CCNc1nc(C)cc(N2CCN(S(=O)(=O)c3ccc(Cl)c(Cl)c3)CC2)n1`, the RP-LC retention time is 770 s.

In turn, `Cc1nc(-c2cc3ccccc3nc2N2CCN(c3ccc(F)cc3)CC2)no1` had an RP-LC retention time of 1110 s.

With `O=C(C1CCN(c2cncnc2N2CCCC2)CC1)N1CCN(c2ccccn2)CC1`, the RP-LC retention time was 552 s.

Molecule `CCC(N)Cc1c[nH]c2ccccc12` (stereo unspecified) yielded an RP-LC retention time of 646 s.

Molecule `Cc1noc(C)c1C(=O)N1CCCn2ccnc2C1C1CCCC1` (stereo unspecified) yielded an RP-LC retention time of 587 s.

`CCC1Oc2ccc(S(=O)(=O)N3CCC(C(=O)NCc4ccco4)CC3)cc2NC1=O` (stereo unspecified) came in with an RP-LC retention time of 795 s.

`Fc1cc(F)c2c(c1)C1C=CCC1C(c1cccnc1)N2` (stereo unspecified) returned an RP-LC retention time of 706 s.

`COc1cccc(NC(=O)Cn2nc3n(c2=O)CCCC3)c1` had an RP-LC retention time of 634 s.

Molecule `COC(=O)c1c(C)[nH]c(C(=O)N2CCC(CC(=O)NCc3cccc(C)c3)CC2)c1C` showed an RP-LC retention time of 748 s.

For `CC(C)c1nnc(NC(=O)C2CCN(C(=O)c3ccc(F)cc3)CC2)s1`, the RP-LC retention time was 727 s.

As to `Cc1ccc(C)c(S(=O)(=O)Nc2ccc3nc(N4CCN(CCC#N)CC4)cc(C(=O)O)c3c2)c1`, the RP-LC retention time stood at 631 s.

`O=C(Nc1cnc(N2CCN(CCOc3ccc(Cl)cc3)CC2)c(C(=O)O)c1)c1ccc(F)cc1` displayed an RP-LC retention time of 694 s.

The molecule `CCN(CC)C(=O)NCCc1noc(COC)n1` displayed an RP-LC retention time of 626 s.

`CCc1cc(=O)n(CC(=O)Nc2ccc(C(F)(F)F)cc2)c(N2CCOCC2)n1` displayed an RP-LC retention time of 849 s.

As for `O=C(NC1CCN(c2cc(-c3cccs3)[nH]n2)C1)c1ccccc1` (stereo unspecified), the RP-LC retention time turned out to be 695 s.

`O=C1CC(c2ccccc2)N1` (stereo unspecified) registered an RP-LC retention time of 646 s.

Take `Cc1ccn2c(NC(=O)c3cccc([N+](=O)[O-])c3C)c(-c3ccccc3)nc2c1`: the RP-LC retention time was determined as 677 s.

The molecule `CCc1ccc(-c2noc(CN3C(=O)COc4cc(Cl)ccc43)n2)cc1` came in with an RP-LC retention time of 1240 s.

Take `CN(C)c1ccc(NC(=O)Cn2c(=O)cc(-c3nc(C4CC4)no3)c3ccccc32)cc1`: the RP-LC retention time was 697 s.

In turn, `CN(C)c1ccc(/C=C(\C#N)C(=O)c2ccccc2)cc1` showed an RP-LC retention time of 1100 s.

In turn, `CNC(=O)OCN1C(=O)C2CC=CCC2C1=O` (stereo unspecified) yielded an RP-LC retention time of 677 s.

Molecule `Cc1c(Cl)cccc1N1C(=O)CN(S(C)(=O)=O)CC1(C)C(=O)NCc1ccc(F)cc1` (stereo unspecified) showed an RP-LC retention time of 814 s.

In the case of `CCc1nc(NCc2ccc3c(c2)OCO3)ncc1C(=O)O`, the RP-LC retention time is 766 s.

On to `Cc1sc(C)c(S(=O)(=O)NCCc2ccccc2)c1-c1cc(C(F)(F)F)on1`, for which the RP-LC retention time is 1180 s.

`CC(C)CNC(=O)N1CC(Oc2ccc(-c3nc(-c4ccccc4)no3)cc2)C1` returned an RP-LC retention time of 1060 s.

Take `CCOc1ccc(CNC(=O)c2c(C)oc3c2C2=NCCN2C=N3)cc1`: the RP-LC retention time came out at 668 s.

Consider `COC(=O)c1ccc2c(=O)n(-c3cccc(OC)c3)c(N3CCN(c4ccccn4)CC3)nc2c1`, for which the RP-LC retention time is 705 s.

Regarding `Cc1cc(NC(=O)C2CCN(S(=O)(=O)c3ccc(F)cc3)CC2)n(C)n1`, the RP-LC retention time is 732 s.

On to `CC(C)n1c(CN2CCN(C)CC2)nc2cc(NC(=O)c3cccs3)ccc21`, for which the RP-LC retention time amounted to 565 s.

For `Cc1cccc(Cn2nc3ccc(S(=O)(=O)N4CCOCC4)cn3c2=O)c1`, the RP-LC retention time was determined as 826 s.

With `CCCC(=O)Nc1ccc(-n2cnc(C(=O)NC3CCCC3)c2)nc1`, the RP-LC retention time came out at 726 s.

`COc1ccc(-c2nnc(-c3ccc(Cl)c(S(=O)(=O)N(C)C)c3)o2)cc1` came in with an RP-LC retention time of 913 s.

With `Cc1csc(-c2cc(S(=O)(=O)N3CCOCC3)cn2CC(=O)N2CCCCC2)n1`, the RP-LC retention time was found to be 846 s.

Turning to `CCn1ccc(-c2nc(CCS(=O)(=O)c3ccccc3)no2)n1`, the RP-LC retention time was 768 s.

In turn, `COc1ccccc1-c1nc(-c2ccc3c(c2)nnn3CCN2CCCCC2)no1` showed an RP-LC retention time of 663 s.

As for `Cc1ccc2nc(C(=O)NCc3cc(F)ccc3F)cn2c1`, the RP-LC retention time amounted to 655 s.

With `Cc1ccccc1-c1cn2ccn(-c3cccc(Cl)c3)c(=O)c2n1`, the RP-LC retention time came to 883 s.

As for `CCN(CC)C(=O)c1ccc2c(c1)nnn2CCNC(=O)Nc1cc(F)ccc1F`, the RP-LC retention time was found to be 714 s.

As to `CCc1cc(-c2csc(S(=O)(=O)Nc3ccc(F)c(Cl)c3)c2)on1`, the RP-LC retention time worked out at 1020 s.

`CC(=O)c1cccc(OC(=O)c2cc3c(C)nn(-c4ccccc4)c3s2)c1`: the RP-LC retention time was found to be 1310 s.

On to `Cc1oc(-c2ccc(NC(=O)C3CCC3)cc2)nc1Cn1cccn1`, for which the RP-LC retention time was 799 s.

As for `CCC(C)NC(=O)Cn1c(=O)c(=O)n(CC)c2ncccc21` (stereo unspecified), the RP-LC retention time worked out at 618 s.

In the case of `Cc1ccccc1NC(=O)Cn1c(=O)n(-c2ccccc2)c(=O)c2c1cc(C)n2C`, the RP-LC retention time came out at 806 s.

For `Cc1cc(C)c(C(=O)N2CCC(CC(=O)NCc3ccc(Cl)cc3)CC2)[nH]1`, the RP-LC retention time was 800 s.

As for `Cc1cnn(Cc2nc(-c3ccc(NC(=O)c4ccsc4)cc3)oc2C)c1`, the RP-LC retention time worked out at 876 s.

Molecule `COC(=O)c1ccc(C(=O)NCC2CCN(S(=O)(=O)C3CC3)CC2)cc1` showed an RP-LC retention time of 732 s.

On to `COc1ccc(-c2nnc(Cc3nc(-c4cccc(Cl)c4)no3)o2)cc1OC`, for which the RP-LC retention time came to 995 s.

With `Cn1ncc(N2CCCC(CC(=O)N3CCSCC3)C2)cc1=O` (stereo unspecified), the RP-LC retention time amounted to 666 s.

For the molecule `CCOC(=O)CNC(=O)NC12CC3CC(CC(C3)C1)C2`, the RP-LC retention time is 802 s.
